ChEMBL document CHEMBL1201862, “PubChem BioAssay data set” (2004)
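All cell lines were grown in 96-well plates and treated with compound for 48 hours. The concentration for 50% growth inhibition is given as GI50.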 The source made the active and inactive calls. Rule as the data show it: active = GI50 up to about 1.1 µM and inactive = higher.

Tests used:
Assay in all cases: inhibition of tumour cell growth, NCI panel, 48 h
[1] = system: UO-31
[2] = system: RPMI-8226
[3] = system: NCI-H226
[4] = system: MCF7
[5] = system: DU-145
[6] = system: M14
[7] = system: U-251
[8] = system: CAKI-1
[9] = system: KM12
[10] = system: ACHN
[11] = system: HCC 2998
[12] = system: MDA-N
[13] = system: Malme-3M
[14] = system: MDA-MB-231
[15] = system: OVCAR-3
[16] = system: HCT-116
[17] = system: MDA-MB-435
[18] = system: IGROV-1
[19] = system: NCI-H522
[20] = system: LOX IMVI

Measured: GI50

C/C(=C\c1ccc(Cl)cc1)C(C)(C)C(=O)O
inactive: [1] > 100 µM | [2] > 100 µM | [3] > 100 µM | [4] > 100 µM | [5] > 100 µM | [6] > 100 µM | [7] > 100 µM | [8] > 100 µM | [9] > 100 µM | [10] > 100 µM | [11] > 100 µM | [12] > 100 µM | [13] > 100 µM | [14] > 100 µM | [15] > 100 µM | [16] > 100 µM | [17] > 100 µM | [18] > 100 µM | [19] > 100 µM

COC1(c2cccs2)c2ccccc2C(OC)(c2cccs2)c2ccccc21 (centres undefined)
inactive: [1] > 100 µM | [2] 63.2 µM | [3] > 100 µM | [4] 84.7 µM | [5] 71 µM | [6] 81.1 µM | [7] 42.4 µM | [8] > 100 µM | [9] > 100 µM | [10] > 100 µM | [11] 49.3 µM | [12] > 100 µM | [13] > 100 µM | [14] 26.4 µM | [15] > 100 µM | [16] 17.4 µM | [17] > 100 µM | [18] > 100 µM | [20] > 100 µM | [19] 97.9 µM

COc1ccc(C[C@H]2NC(=O)/C=C/C[C@@H]([C@H](C)[C@H]3O[C@@H]3c3ccccc3)OC(=O)[C@H](CC(C)C)OC(=O)[C@H](C)CNC2=O)cc1
active: [1] 4.71e-05 µM | [2] 2.85e-05 µM | [3] > 4.41e-05 µM | [4] > 8.95e-05 µM | [5] 2.96e-05 µM | [6] 1.72e-05 µM | [7] 2.86e-05 µM | [8] 1.25e-05 µM | [9] 3.93e-05 µM | [10] 5.93e-05 µM | [11] 4.45e-05 µM | [12] 5.31e-06 µM | [13] 2.19e-05 µM | [14] 4.49e-05 µM | [15] 1.58e-05 µM | [16] 1.57e-05 µM | [17] 3.37e-06 µM | [18] 3.24e-05 µM | [20] 1.74e-05 µM | [19] 1.05e-05 µM

Cc1nnc2cc(C(=O)O)c3ccccc3n2c1=O
inactive: [1] > 10 µM | [2] > 10 µM | [3] > 10 µM | [4] > 10 µM | [5] > 10 µM | [6] > 10 µM | [7] > 10 µM | [8] > 10 µM | [11] > 10 µM | [12] > 10 µM | [13] > 10 µM | [14] > 10 µM | [15] > 10 µM | [16] > 10 µM | [17] > 10 µM | [18] > 10 µM | [20] > 10 µM | [19] > 10 µM

Fc1ccc(C(OCCN2CCC3CCC(C2)N3C/C=C/c2cccnc2)c2ccc(F)cc2)cc1 (centres undefined)
inactive: [1] 1.88 µM | [2] 3.43 µM | [3] 12.1 µM | [4] 11 µM | [5] 15.8 µM | [6] 2.53 µM | [7] 11.9 µM | [8] 12 µM | [9] 10.5 µM | [10] 14.2 µM | [11] 4.79 µM | [12] 11.6 µM | [13] 4.08 µM | [14] 13.3 µM | [15] 12.8 µM | [16] 5.93 µM | [17] 11.1 µM | [18] 13.3 µM | [20] 13.1 µM | [19] 13.6 µM

CCN(CC)C1C(=O)NC1C#Cc1ccccc1 (centres undefined)
inactive: [1] > 100 µM | [2] 76.7 µM | [3] > 100 µM | [4] 49.2 µM | [5] > 100 µM | [6] > 100 µM | [7] > 100 µM | [8] 38.4 µM | [9] > 100 µM | [10] > 100 µM | [11] > 100 µM | [12] 57.3 µM | [13] 98.4 µM | [14] > 100 µM | [15] > 100 µM | [16] > 100 µM | [17] 40.8 µM | [18] 67.5 µM | [20] 39.7 µM | [19] 25 µM

O=[N+]([O-])c1cccc2nc3ccccc3c(NCCC[N+]3([O-])CCCCC3)c12
inactive: [1] 12.9 µM | [6] 1.2 µM | [8] 20 µM | [10] 5.37 µM
active: [2] 0.308 µM | [3] 0.592 µM | [4] 0.176 µM | [5] 0.35 µM | [7] 0.289 µM | [9] 0.349 µM | [11] 0.136 µM | [12] 0.176 µM | [13] 0.168 µM | [14] 0.351 µM | [15] 0.281 µM | [16] 0.261 µM | [17] 0.18 µM | [18] 0.394 µM | [20] 0.46 µM | [19] 0.134 µM

O=[N+]([O-])/C(C(Cl)=C(Cl)Cl)=C(/Cl)SCc1ccccc1
inactive: [1] 2.22 µM | [3] 25.2 µM | [5] 17.3 µM | [6] 1.83 µM | [7] 8.04 µM | [8] 3.18 µM | [9] 18.8 µM | [10] 2.89 µM | [11] 24.8 µM | [12] 1.84 µM | [13] 2.47 µM | [14] 2.3 µM | [15] 3.66 µM | [16] 1.82 µM | [17] 2.35 µM | [18] 20.7 µM | [20] 11.3 µM | [19] 2.78 µM
active: [2] 0.889 µM | [4] 0.495 µM

COc1ccc(N2C(=O)C3c4[nH]c5ccc(OCc6ccccc6)cc5c4C4CCC(C(C)(C)C)CC4C3C2=O)cc1 (centres undefined)
inactive: [2] > 100 µM | [3] > 100 µM | [4] 85.3 µM | [5] > 100 µM | [6] 78.7 µM | [7] 27.1 µM | [8] > 100 µM | [9] > 100 µM | [10] > 100 µM | [11] > 100 µM | [12] > 100 µM | [13] 25.7 µM | [14] 53.2 µM | [15] 57.5 µM | [16] 42.4 µM | [17] 97.7 µM | [18] > 100 µM | [20] > 100 µM | [19] > 100 µM

N#Cc1cc2c(n(C3OC(CO)C(O)C(O)C3O)c1=S)CCCCCC2 (centres undefined)
inactive: [1] > 100 µM | [2] > 100 µM | [3] > 100 µM | [4] > 100 µM | [5] > 100 µM | [6] > 100 µM | [7] > 100 µM | [8] > 100 µM | [9] > 100 µM | [10] > 100 µM | [11] > 100 µM | [12] > 100 µM | [13] > 100 µM | [14] > 100 µM | [15] > 100 µM | [16] > 100 µM | [17] > 100 µM | [18] > 100 µM | [20] > 100 µM | [19] > 100 µM

N#Cc1c(NC(=S)Nc2ccc(Cl)cc2)sc2c1CCN(N1CCc3c(sc(NC(=S)Nc4ccc(Cl)cc4)c3C#N)C1)C2
inactive: [1] 14.9 µM | [2] > 100 µM | [3] 16.1 µM | [4] 37.2 µM | [5] 37.8 µM | [6] 11 µM | [7] 29.2 µM | [8] 63.8 µM | [9] 55.2 µM | [10] 12.7 µM | [11] 50.2 µM | [12] 28.7 µM | [13] 55.2 µM | [14] 12.7 µM | [15] 74.5 µM | [16] 21.6 µM | [17] 27.1 µM | [18] 16.1 µM | [20] 5.62 µM | [19] 18.2 µM

C(=C/c1nnnn1-c1ccccc1)/Nc1ccccc1
inactive: [1] 20.6 µM | [2] 31 µM | [3] 19.1 µM | [4] 19.3 µM | [5] 24.7 µM | [6] 26.1 µM | [7] 27.9 µM | [8] 43 µM | [9] 31.6 µM | [10] 28.1 µM | [11] 21.7 µM | [12] 22 µM | [13] 31.4 µM | [14] 39 µM | [15] 27.2 µM | [16] 31.9 µM | [17] 26.1 µM | [18] 35.2 µM | [20] 28.1 µM | [19] 20.8 µM

CCOP(=O)(OCC)/C(C#N)=C/c1cccn1Cc1ccccc1
inactive: [1] 24.4 µM | [3] 20.7 µM | [4] 29.5 µM | [5] 43.2 µM | [6] 48.1 µM | [7] 22.6 µM | [8] 42.2 µM | [9] 26.9 µM | [10] 34.4 µM | [11] 35.3 µM | [12] 29.9 µM | [13] 32.3 µM | [14] 22.4 µM | [15] 40.6 µM | [16] 17 µM | [17] 19.4 µM | [18] 26.1 µM | [20] 20.8 µM | [19] 23.8 µM

CC1(C)N=C(N)N=C(N)N1c1ccc(Cl)cc1
inactive: [1] 47.2 µM | [2] 6.81 µM | [3] 85.5 µM | [4] 15.6 µM | [5] 7.11 µM | [6] 4.88 µM | [7] 1.3 µM | [8] 19.1 µM | [9] 8.73 µM | [10] 5.16 µM | [11] 9.02 µM | [12] 1.51 µM | [13] 26.2 µM | [14] 21.7 µM | [16] 4.17 µM | [17] 1.79 µM | [18] 2.23 µM | [20] 1.34 µM | [19] 3.99 µM
